Patent publication US11590116B2 (THERAVANCE BIOPHARMA R&D IP, LLC, priority 2019, dated 2023)

Assays:
[1] = tested on: TGF-β-stimulated SMAD3 phosphorylation in BEAS-2B cells; assay: Cellular ALK5 potency assay, inhibition of TGF-β stimulated pSMAD3 formation in BEAS-2B cells; assay type: cell-based; conditions: Homo sapiens; inhibition of TGF-β stimulated pSMAD3 formation, BEAS-2B cells; read-out: BEAS2B pIC50 (converted)
Procedure: The potency of compounds of the present disclosure for inhibition of TGF-β-stimulated SMAD3 phosphorylation was measured in BEAS-2B cells, a human lung epithelial cell line. TGF-β signals through activin receptor-like kinase 5 (ALK5) immediately prior to SMAD3 phosphorylation.
BEAS-2B cells were grown using 50% DMEM (Life Technologies) and 50% F-12 (Life Technologies) media, supplemented with 10% Fetal Bovine Serum (ATCC), 25 mM HEPES (Life Technologies), and 1× Pen-Strep (Life Technologies). Cells were cultured in a humidified incubator set at 37° C., 5% CO2, and trypsonized using 0.25% Trypsin with 0.5% polyvinylpyrrolidone (PVP).
For the assay, BEAS-2B cells were seeded at 7,500 cells/well (25 μL/well) in a 384-well plate and cultured overnight. Before dosing, growth media was aspirated and the wells were rinsed with HBSS Buffer (HBSS with Calcium and Magnesium, Life Technologies) supplemented with 25 mM HEPES (Life Technologies) and 1% Bovine Serum Albumin (Roche). Compounds were serially diluted in DMSO, then further diluted with supplemented HBSS Buffer (50 μL/well) to create a compound plate 3× of the final assay concentration, at 0.3% DMSO. The diluted compounds were then added to the cells (8 μL/well) and incubated at 37° C., 5% CO2 for 1 hour. After the compound incubation, TGF-β (R&D Systems) reconstituted in supplemented HBSS Buffer was added to the cells ([…], final concentration 10 ng/mL) and incubated for a further 30 minutes, after which the cells were immediately lysed with AlphaLISA lysis buffer (PerkinElmer). AlphaLISA Acceptor and Detector beads (PerkinElmer) were added 2 hours apart, then incubated overnight to be read the next day. The potency of the compound was determined through analysis of dose-dependent quantified changes in pSMAD3 signal from baseline (non-compound treated TGF-β stimulated cells). Data are expressed as pIC50 (negative decadic logarithm IC50) values.

[2] = molecular target: T1, recombinant human ALK5 (TGF-βR1) protein (Homo sapiens, UniProt P36897); assay: Biochemical ALK5 (TGF-βR1) assay to measure pKi (LANCE Ultra ULight kinase assay); conditions: apparent pKi from pIC50 by Cheng-Prusoff, read-out: ALK5 pKi (converted)
T1 construct: purchased Life Technologies PR9075A
T1 sequence (P36897 34-503): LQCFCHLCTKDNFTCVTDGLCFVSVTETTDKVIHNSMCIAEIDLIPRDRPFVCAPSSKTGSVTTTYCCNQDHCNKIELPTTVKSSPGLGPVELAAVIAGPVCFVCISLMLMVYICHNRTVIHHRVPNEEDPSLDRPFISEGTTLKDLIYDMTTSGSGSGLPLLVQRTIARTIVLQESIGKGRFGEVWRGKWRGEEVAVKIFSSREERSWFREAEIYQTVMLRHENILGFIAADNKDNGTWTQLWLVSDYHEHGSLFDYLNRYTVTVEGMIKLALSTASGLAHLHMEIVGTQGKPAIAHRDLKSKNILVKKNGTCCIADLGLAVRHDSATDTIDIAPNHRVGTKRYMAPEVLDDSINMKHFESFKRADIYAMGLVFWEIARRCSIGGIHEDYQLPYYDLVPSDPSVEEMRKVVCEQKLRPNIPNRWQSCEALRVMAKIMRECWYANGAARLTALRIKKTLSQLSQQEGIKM
Procedure: The assays were performed in a 384-well plate (24 columns×16 wells/rows). An Echo® 550 Liquid Handler (Labcyte) was used to prepare various intermediate concentrations of compounds of the present disclosure in 100% DMSO. From the intermediate concentrations, a range of concentrations (from 10 μM to 25 pM corresponding to volumes up to 105 nL) were prepared and ejected into a final assay plate to be used to create individual dose response curves for each of the subject compounds. To a separate column within the assay plate, 105 nL of DMSO in each well was used to establish a maximum assay signal.
With a multidrop dispenser, 8 μL of enzyme mixture (1.25× final) was added to each well. […] The plate was then sealed with an adhesive seal and allowed to equilibrate for 60 minutes at room temperature.
Next, 2 μL of 125 μM ATP (5× final, 125 μM ATP prepared in assay buffer with 2 mM DTT) was added to the incubated mixtures, covered with a MicroClime® Environmental Lid (Product No. LLS-0310, Labcyte) and immediately transferred to 37° C. The reactions were allowed to proceed at 37° C. for 60 minutes before terminating with the addition of 10 μL of detection antibody (LANCE® (lanthanide chelate excite) Ultra Europium-anti-phospo-DNA Topoisomerase 2-alpha (Thr1342)) in detection mixture (12 mM EDTA, 4 nM detection antibody prepared in detection buffer (50 mM Tris-HCl, 150 mM NaCl, 0.5% BSA (Fraction V), pH 7.0)) at room temperature. The plate was then read on a Perkin Elmer EnVision Plate Reader using europium specific reader settings with excitation and emission wavelengths set to 320 or 340 nm and 665 nm, respectively.
For dose-response analyses, percent inhibition versus compound concentrations were plotted, and pIC50 values were determined from a 4-parameter robust fit model with GraphPad Prism V5 Software (GraphPad Software, Inc., La Jolla, Calif.). This model obtains pIC50 values by fitting the sigmoidal dose-response (variable slope) equation to the data. Results were expressed as pIC50 (negative logarithm of IC50) and subsequently converted to pKi (negative logarithm of dissociate constant, K) using the Cheng-Prusoff equation. The higher the value of pKi (lower value of Ki), the greater the inhibition of ALK5 activity.

Structure (SMILES)	IC50 [1] [nM]	Ki [2] [nM]
Cc1cccc(-c2[nH]nnc2-c2ccc3ncc(N4CCC(N(C)C)C4)cc3c2)n1 (racemic) [Compound 561, rac-(3S)-N,N-dimethyl-1-[6-[5-(6-methyl-2-pyridyl)-1H-triazol-4-yl]-3-quinolyl]pyrrolidin-3-amine]	25.1 to 158	< 0.0316
Cc1cccc(-c2n[nH]cc2-c2ccc3ncc(N4C[C@@H]5CCN[C@@H]5C4)cc3n2)n1 (racemic) [Compound 598, 2-[3-(6-methyl-2-pyridyl)-1H-pyrazol-4-yl]-7-[rac-(3aS,6aS)-2,3,3a,4,6,6a-hexahydro-1H-pyrrolo[2,3-c]pyrrol-5-yl]-1,5-naphthyridine]	25.1 to 158	< 0.0316
Cc1cccc(-c2[nH]c(CNc3ccccc3F)nc2-c2ccc3ncc(N4CCC(N(C)C)C4)cc3c2)n1 (racemic) [Compound 652, rac-(3S)-1-[6-[2-[(2-fluoroanilino)methyl]-5-(6-methyl-2-pyridyl)-1H-imidazol-4-yl]-3-quinolyl]-N,N-dimethyl-pyrrolidin-3-amine]	200 to 1260	0.0398 to 0.316
Cc1cccc(-c2[nH]cnc2-c2ccc3ncc(C(=O)O[C@@H]4CC[C@@H](N)C4)cc3c2)n1 (racemic) [Compound 766, [rac-(1R,3R)-3-aminocyclopentyl] 6-[5-(6-methyl-2-pyridyl)-1H-imidazol-4-yl]quinoline-3-carboxylate]	25.1 to 158	0.0398 to 0.316
Cc1cccc(-c2[nH]cnc2-c2ccc3ncc(C(=O)OC[C@@H]4CCC[C@H](N)C4)cc3c2)n1 (racemic) [Compound 767, [rac-(1R,3S)-3-aminocyclohexyl]methyl 6-[5-(6-methyl-2-pyridyl)-1H-imidazol-4-yl]quinoline-3-carboxylate]	25.1 to 158	0.0398 to 0.316
Cc1cccc(-c2[nH]cnc2-c2ccc3ncc(C(=O)OC[C@H]4CCC[C@H](N)C4)cc3c2)n1 (racemic) [Compound 769, [rac-(1S,3S)-3-aminocyclohexyl]methyl 6-[5-(6-methyl-2-pyridyl)-1H-imidazol-4-yl]quinoline-3-carboxylate]	25.1 to 158	0.0398 to 0.316
Cc1cccc(-c2[nH]cnc2-c2ccc3ncc(C(=O)O[C@H]4CCC[C@H](N)C4)cc3c2)n1 (racemic) [Compound 774, [rac-(1S,3S)-3-aminocyclohexyl] 6-[5-(6-methyl-2-pyridyl)-1H-imidazol-4-yl]quinoline-3-carboxylate]	200 to 1260	0.398 to 3.16
Cc1cccc(-c2[nH]cnc2-c2ccc3ncc(C4=CCC(NC(=O)CC5CNC5)CC4)cc3c2)n1 (racemic) [Compound 793, 2-(azetidin-3-yl)-N-[rac-(1R)-4-[6-[5-(6-methyl-2-pyridyl)-1H-imidazol-4-yl]-3-quinolyl]cyclohex-3-en-1-yl]acetamide]	200 to 1260	0.0398 to 0.316
Cc1cccc(-c2n[nH]cc2-c2ccc3nccc(C(=O)NCCCC[C@H](NC(=O)[C@@H](C)N)C(=O)O)c3n2)n1 (racemic) [Compound 804, rac-(2S)-6-[[6-[3-(6-methyl-2-pyridyl)-1H-pyrazol-4-yl]-1,5-naphthyridine-4-carbonyl]amino]-2-[[rac-(2R)-2-aminopropanoyl]amino]hexanoic acid]	1580 to 10000	0.398 to 3.16
Cc1cccc(-c2n[nH]cc2-c2ccc3nccc(C(=O)NCCCCC(NC(=O)CN)C(=O)O)c3n2)n1 (racemic) [Compound 805, rac-(2S)-2-[(2-aminoacetyl)amino]-6-[[6-[3-(6-methyl-2-pyridyl)-1H-pyrazol-4-yl]-1,5-naphthyridine-4-carbonyl]amino]hexanoic acid]	1580 to 10000	0.398 to 3.16
Cc1cccc(-c2n[nH]cc2-c2ccc3nccc(C(=O)NCCCCCCNC(=O)[C@@H]4CCCN4C(=O)CN4CCOCC4)c3n2)n1 (racemic) [Compound 809, 6-[3-(6-methyl-2-pyridyl)-1H-pyrazol-4-yl]-N-[6-[[rac-(2S)-1-(2-morpholinoacetyl)pyrrolidine-2-carbonyl]amino]hexyl]-1,5-naphthyridine-4-carboxamide]	200 to 1260	0.398 to 3.16
Cc1cccc(-c2n[nH]cc2-c2ccc3nccc(C4CO[C@H]5CNC[C@@H]5N4)c3n2)n1 (mixture of isomers) [Compound 861, rac-(4aS,7aS)-3-[6-[3-(6-methyl-2-pyridyl)-1H-pyrazol-4-yl]-1,5-naphthyridin-4-yl]-2,3,4,4a,5,6,7,7a-octahydropyrrolo[3,4-b][1,4]oxazine]	200 to 1260	3.98 to 31.6
Cc1cccc(-c2n[nH]cc2-c2ccc3nccc(N4CCC(N(C)C)C4)c3c2)n1 (racemic) [Compound 867, rac-(3S)-N,N-dimethyl-1-[6-[3-(6-methyl-2-pyridyl)-1H-pyrazol-4-yl]-4-quinolyl]pyrrolidin-3-amine]	200 to 1260	0.398 to 3.16
Cc1cccc(-c2[nH]ncc2-c2ccc3ncc(C(=O)OC[C@H]4CCCCN4)cc3c2)n1 (racemic) [Compound 1194, [rac-(2R)-2-piperidyl]methyl 6-[5-(6-methyl-2-pyridyl)-1H-pyrazol-4-yl]quinoline-3-carboxylate]	< 20	0.0398 to 0.316
Cc1cccc(-c2[nH]cnc2-c2ccc3ncc(-c4csc(C(=O)OC[C@@H]5CCC[C@H](N)C5)c4)cc3c2)n1 (racemic) [Compound 1197, [rac-(1R,3S)-3-aminocyclohexyl]methyl 4-[6-[5-(6-methyl-2-pyridyl)-1H-imidazol-4-yl]-3-quinolyl]thiophene-2-carboxylate]	25.1 to 158	0.0398 to 0.316
Cc1cccc(-c2[nH]cnc2-c2ccc3ncc(-c4csc(C(=O)OC[C@@H]5CCC[C@@H](N)C5)c4)cc3c2)n1 (racemic) [Compound 1215, [rac-(1R,3R)-3-aminocyclohexyl]methyl 4-[6-[5-(6-methyl-2-pyridyl)-1H-imidazol-4-yl]-3-quinolyl]thiophene-2-carboxylate]	25.1 to 158	< 0.0316
Cc1nc(-c2n[nH]cc2-c2ccc3ncc(-c4cnn5c4NCCC5)cc3n2)ccc1F [Compound 1, 2-[3-(5-fluoro-6-methyl-2-pyridyl)-1H-pyrazol-4-yl]-7-(4,5,6,7-tetrahydropyrazolo[1,5-a]pyrimidin-3-yl)-1,5-naphthyridine]	25.1 to 158	< 0.0316
Cc1nc(-c2nc3ccccn3c2-c2ccc3ncc(N4CCNCC4)cc3n2)ccc1F [Compound 2, 2-[2-(5-fluoro-6-methyl-2-pyridyl)imidazo[1,2-a]pyridin-3-yl]-7-piperazin-1-yl-1,5-naphthyridine]	25.1 to 158	0.0398 to 0.316
